Source: the NIST ThermoML archive (doi:10.1016/j.jct.2006.07.006)
“And” between values parts separate entries of the source, which are not always exact repeats. Equal entries are not always repeated. ± gives the expanded uncertainty stated by the source.

Experiment: activity coefficient (dimensionless); of the first substance listed, at infinite dilution; xn = mol fraction of the nth substance listed
Conditions: 101 kPa, Liquid, x1 = 0

Structure (SMILES) | activity coefficient (301.8 K) | activity coefficient (312.4 K) | activity coefficient (322.9 K) | activity coefficient (333.2 K) | activity coefficient (344 K) | activity coefficient (354.3 K) | activity coefficient (333.4 K) | activity coefficient (343.9 K) | activity coefficient (354.4 K) | activity coefficient (364.8 K) | activity coefficient (375.2 K) | activity coefficient (386 K) | activity coefficient (396 K) | activity coefficient (323.1 K) | activity coefficient (333.5 K) | activity coefficient (354.5 K) | activity coefficient (364.9 K) | activity coefficient (375.4 K) | activity coefficient (386.1 K)
CO [methanol] + CCCCCC[n+]1ccn(C)c1.O=S(=O)([N-]S(=O)(=O)C(F)(F)F)C(F)(F)F | 1.46 [middle of 4 runs] | 1.29 [middle of 5 runs] | 1.15 and 1.25 and 1.22 | 1.1 [middle of 4 runs] | 1 [middle of 4 runs] | 0.87 and 0.93 and 0.9 | – | – | – | – | – | – | – | – | – | – | – | – | –
CCCCCCO [hexan-1-ol] + CCCCCC[n+]1ccn(C)c1.O=S(=O)([N-]S(=O)(=O)C(F)(F)F)C(F)(F)F | – | – | – | – | – | – | 2.57 ± 0.47 | 2.32 and 2.25 and 2.37 | 2.14 [middle of 7 runs] | 1.95 [middle of 5 runs] | 1.8 [middle of 5 runs] | 1.67 and 1.69 and 1.7 | 1.56 ± 0.25 | – | – | – | – | – | –
CCCCO [butan-1-ol] + CCCCCC[n+]1ccn(C)c1.O=S(=O)([N-]S(=O)(=O)C(F)(F)F)C(F)(F)F | – | – | – | – | 1.61 [middle of 5 runs] | – | – | – | – | – | – | – | – | 1.99 and 1.98 and 2.06 | 1.83 [middle of 4 runs] | 1.46 [middle of 5 runs] | 1.34 [middle of 4 runs] | 1.23 and 1.28 | 1.14 ± 0.12
